Like-named read-outs stand apart in the source and are kept apart here.

In this assay the target is T1, human GPR119 receptor (Homo sapiens, UniProt Q8TDV5).
T1 construct: expressed in transfected cells
T1 sequence (Q8TDV5 1-335): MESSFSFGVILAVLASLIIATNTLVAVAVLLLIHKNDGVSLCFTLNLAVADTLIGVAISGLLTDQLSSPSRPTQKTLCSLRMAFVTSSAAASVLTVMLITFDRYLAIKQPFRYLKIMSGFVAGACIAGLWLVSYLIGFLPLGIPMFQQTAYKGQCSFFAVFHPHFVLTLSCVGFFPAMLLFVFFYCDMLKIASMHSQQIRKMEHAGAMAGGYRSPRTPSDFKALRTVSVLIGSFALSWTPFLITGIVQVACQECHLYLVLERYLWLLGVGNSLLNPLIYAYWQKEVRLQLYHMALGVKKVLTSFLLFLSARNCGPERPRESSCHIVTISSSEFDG
The experiment in a line: Human GPR119 Activity Assay (cAMP, HTRF). It is filed as cell-based. On the procedure:
Human GPR119 Activity Assay
Agonists to the human GPR119 receptor were characterized by measuring human GPR119 receptor-mediated stimulation of cyclic AMP (cAMP) in HEK 293 cells expressing the human GPR119 receptor.
Briefly, cAMP content was determined using a cAMP kit based on HTRF technology (Homogeneous Time-Resolved Fluorescence, Cisbio Cat. no. 62AM2PEC). HEK293 cells stably expressing the human GPR119 receptor (HEK293-hGPR119 cells) were cultured in DMEM (Gibco # 31966-021) supplemented with 10% Bovine Calf Serum (Hyclone # SH30072.03), and, 500 μg/mL Hygromycin B (Roche Diagnostics 843555). At 80% confluency, cells were detached using Trypsine and aliquoted at a density of 5×10^6 cells/mL in freezing medium (DMEM (Gibco # 31966-021), 20% BCS (Hyclone # SH30072.03), 10% DMSO (Sigma #D2650) and stored at −135° C. On the experimental day, HEK293-hGPR119 cells were thawn and diluted to 0.4×10^6 cells/mL in assay buffer (1×HBSS (Gibco Cat. no. 14025-049), 20 mM Hepes (Gibco Cat. no. 15630-056), 0.1% BSA, pH 7.4) and incubated with test substances for 20 min at room temperature. After addition of HTRF reagents diluted in lysis buffer, the 96- or 384-well plates were incubated 1 hour, followed by measuring the fluorescence ratio at 665 nm/620 nm. Test substances was diluted in compound buffer (1×HBSS (Gibco Cat. no. 14025-049), 20 mM Hepes (Gibco Cat. no. 15630-056), 0.1% BSA, 2 mM IBMX (Sigma-Aldrich Cat. No. 17018, pH 7.4). The potency of the agonist was quantified by determine the concentration that cause 50% activation of hGPR119 evoked increase in cAMP, EC50.
On the technique in general: Time-resolved FRET reads energy transfer from a long-lived donor to a nearby acceptor.

[1] abbreviates: stimulation of cAMP in HEK293 cells stably expressing human GPR119, 20 min at room temperature, HTRF, read-out: EC50 (μM), Agonist potency at the human GPR119.

For the compound `CS(=O)(=O)c1ccc(-c2ccc(OCC3CCN(C(=O)OCc4ccccc4)CC3)nc2)cc1` [EXAMPLE A2, Benzyl 4-[({5-[4-(methylsulfonyl)phenyl]pyridin-2-yl}oxy)methyl]piperidine-1-carboxylate], the EC50 (in general, the concentration giving half of the maximal effect) under setting [1] was determined as 0.11 µM.

For `CN(Cc1ccc(-c2ccc(S(C)(=O)=O)cc2)cn1)C1CCN(C(=O)OC(C)(C)C)CC1` [EXAMPLE A39, tert-Butyl 4-[methyl({5-[4-(methylsulfonyl)phenyl]pyridin-2-yl}methyl)amino]-piperidine-1-carboxylate], the EC50 under setting [1] stood at 0.139 µM. In the case of `CN(Cc1ccc(-c2ccc(S(C)(=O)=O)cc2)nc1)C1CCN(C(=O)OC(C)(C)C)CC1` [EXAMPLE B2, tert-Butyl 4-[methyl({6-[4-(methylsulfonyl)phenyl]pyridin-3-yl}methyl)amino]-piperidine-1-carboxylate], the EC50 was 0.022 µM.

The values are drawn from patent US20080103123A1, “New compounds” (Biovitrum, priority 2006, published 2008).
